US6376488B1, “Benzoxazine α-1 adrenergic compounds” (Abbott Laboratories, priority 2000, dated 2002)

What was measured:
[1] = target: T1, α1b (Hamster) adrenoreceptor (Mesocricetus auratus, UniProt P18841); assay: [3H]-prazosin radioligand binding, cloned α1b (hamster) adrenoreceptor in LTK cells; details: cloned receptor in LTK cell membranes, [3H]prazosin 0.2 nM
T1 sequence (P18841 1-515): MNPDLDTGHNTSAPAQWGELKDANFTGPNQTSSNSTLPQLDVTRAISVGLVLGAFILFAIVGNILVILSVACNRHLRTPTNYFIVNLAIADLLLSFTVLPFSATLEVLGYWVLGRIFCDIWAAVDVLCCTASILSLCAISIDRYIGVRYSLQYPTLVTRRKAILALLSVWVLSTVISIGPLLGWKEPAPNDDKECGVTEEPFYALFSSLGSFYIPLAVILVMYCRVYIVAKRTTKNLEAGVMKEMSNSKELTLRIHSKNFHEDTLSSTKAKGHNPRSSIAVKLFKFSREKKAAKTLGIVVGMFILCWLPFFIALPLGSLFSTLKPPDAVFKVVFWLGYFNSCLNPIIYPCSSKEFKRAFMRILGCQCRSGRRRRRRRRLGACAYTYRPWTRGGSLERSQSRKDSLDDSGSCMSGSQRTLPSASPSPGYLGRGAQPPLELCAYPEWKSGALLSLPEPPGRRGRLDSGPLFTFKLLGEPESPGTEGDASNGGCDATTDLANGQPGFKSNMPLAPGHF
Text: (§1) The cDNA clones encoding the α1, adrenoreceptors were obtained from TULCO (Triangle Universities Licensing Consortium, Research Triangle Park, N.C.) and inserted into the eukaryotic expression vector SnaB30. In this vector, expression of the adrenoreceptor gene is under the transcriptional control of an SV40 early promoter. Positive drug selection is provided by a neomycin-resistance gene. Mouse fibroblast cells (LTK) were transfected with the α1 expression plasmids and grown in Dulbecco's modified Eagle's medium (DMEM) containing 10% fetal calf serum and 30 μM G418. […] Stable single cell clones derived from the parental lines were screened in adrenoreceptor binding assays to identify clones having high adrenoreceptor density. Roller bottle cultures of the cloned lines were used to provide cell membranes for subsequent adrenoreceptor binding characterization studies. A cell line containing the SnaB30 vector expressing the human erythropoietin gene served as a negative control.
(§2) For adrenoreceptor binding assays, large scale membrane preparations were utilized in which 6 million cells were seeded into small (450 cm^2) Coming tissue culture roller bottles. DMEM (200 mL) containing 10% fetal calf serum and 300 μM G418 were added to each roller bottle. A 95% air/5% CO2 gas mixture (sterile) was injected into each roller bottle prior to sealing, and the bottles were then incubated at 37° C. on a roller rack for 5 days. Cells were refed with fresh medium after 3 days in culture.
(§3) On the fifth day of culture, growth medium was removed from cells grown in roller bottles, and the cells were washed twice with PBS (Sigma, 120 mM NaCl, 2.7 mM KCl, 10 mM Na2HPO4-NaH2PO4, pH=7.4). Cells were detached from the roller bottles by incubating for 15 minutes at 37° C. in a Tris-EDTA solution (10 mM Tris, 100 mM NaCl, 1 mM EDTA, pH=7.4). The cell suspension from each roller bottle was decanted into tared centrifuge tubes and kept on ice. An aliquot of each cell suspension was generally taken for cell counting. Cells were centrifuged at 3000×G for 5 minutes at 2-4° C., washed with PBS and recentrifuged. The supernatant was decanted, and the pellet was weighed to determine the wet weight of cells. Cells were washed a final time in 40 vol 5 mM Tris-HCl, 5 mM EDTA, pH=7.7 and centrifuged at 40,000×G for 10 minutes (“vol” indicates volume/weight, e.g., a “vol” of 40 would indicate that the one gram of cells were washed with 40 mls of buffer). Cells were homogenized in of 50 mM Tris-HCl, 5 mM EDTA (pH=7.4) (10 mL) and diluted to 40 mL/tube. Homogenates were centrifuged at 40,000×G for 10 minutes. The supernatant was decanted and the pellets rehomogenized in 50 mM Tris-HCl (pH=7.4) and centrifuged as before.
(§4) Following equilibration, bound radioligand was separated from free on GF/B filters (presoaked in 0.5% polyethyleneimine) using ither a Brandel or Packard cell harvester. Radioactivity was determined by standard liquid scintillation techniques.

α1a (rat) adrenoreceptor = target: T2, α1a (rat) adrenoreceptor (Rattus norvegicus, UniProt P43140); assay: [3H]-prazosin radioligand binding, cloned α1a (rat) adrenoreceptor in LTK cells; details: cloned receptor in LTK cell membranes, [3H]prazosin 0.2 nM
T2 sequence (P43140 1-466): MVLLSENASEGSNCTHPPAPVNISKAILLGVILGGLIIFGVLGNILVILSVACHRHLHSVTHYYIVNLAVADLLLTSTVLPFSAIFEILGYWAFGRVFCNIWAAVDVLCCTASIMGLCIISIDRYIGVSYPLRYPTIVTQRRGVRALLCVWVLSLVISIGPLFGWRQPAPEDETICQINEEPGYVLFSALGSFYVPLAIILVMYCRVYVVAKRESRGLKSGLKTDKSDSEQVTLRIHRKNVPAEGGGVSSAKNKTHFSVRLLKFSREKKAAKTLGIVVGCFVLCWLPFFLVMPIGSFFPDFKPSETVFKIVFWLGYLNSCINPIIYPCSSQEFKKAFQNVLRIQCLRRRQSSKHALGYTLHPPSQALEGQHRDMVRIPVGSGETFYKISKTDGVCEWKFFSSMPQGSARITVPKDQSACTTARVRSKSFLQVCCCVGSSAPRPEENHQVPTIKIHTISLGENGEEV
Text: as §1, §2, §3, §4

| Ki [1] | Ki (α1a (rat) adrenoreceptor) | Compound |
| --- | --- | --- |
| 14.3 nM | 1.84 nM | Cl.Cl.O=c1[nH]c2c(sc3cccnc32)c(=O)n1CCCN1CCN2c3ccccc3OCC2C1 (single isomer, unassigned; (+)) [Example 1, (+) 3-[3-(1,2,4a,5-tetrahydropyrazino[2,1-c][1,4]benzoxazin-3(4H)-yl)propyl]pyrido[2′,3′:4,5]thieno[3,2-d]pyrimidine-2,4(1H,3H)-dione dihydrochloride] |
| 40.4 nM | 4.44 nM | COc1cccc2c1N1CCN(CCCn3c(=O)[nH]c4c(sc5cccnc54)c3=O)CC1CO2.Cl.Cl.Cl (single isomer, unassigned; (+)) [Example 17, (+) 3-[3-(10-methoxy-1,2,4a,5-tetrahydropyrazino[2,1-c][1,4]benzoxazin-3(4H)-yl)propyl]pyrido[2′,3′:4,5]thieno[3,2-d]pyrimidine-2,4(1H,3H)-dione trihydrochloride] |
